Measurements published in article PMC12473689, “Drug Metabolism and Pharmacokinetics of Oxazolo[4,5-c]quinoline Analogs as Novel Interleukin-33 Inhibitors” (Pharmaceutics, 2025).

Tests used:
[1] = In vitro metabolic stability in pooled mouse liver S9 fraction; format: in vitro ADME; conditions: male, ICR; for remaining at 1 h, 3 µM / half-life at 3 µM: pH 7.4, MLS9 1 mg/mL, 3 µM compound; for remaining at 1 h, 3 µM: cofactors NADPH, UDPGA, PAPS, GSH, 37 °C, read-out: % remaining after 60 min; for half-life at 3 µM: with cofactors, one-phase decay fit, read-out: in vitro t½ (estimated); for microsomal CLint at 3 µM: pH 7.4, MLS9, CLint,u = k/(fu,S9 × [S9]), read-out: CLint,u (unbound intrinsic clearance)
Protocol: (§1) Metabolic stability was assessed using pooled HLS9 and MLS9 fractions. The S9 fractions (20 mg/mL) were diluted to 1 mg/mL with 0.1 M potassium phosphate buffer (pH 7.4). Stock solutions of KB-1517 and KB-1518 (10 mM in DMSO) were diluted in 50% aqueous acetonitrile to prepare working solutions (120 µM). A Tris mix buffer containing 1 M Tris-HCl (pH 7.4), 10 mM MgCl2, and 125 µg/mL alamethicin was prepared. A combined cofactor solution was prepared in 0.1 M potassium phosphate buffer (pH 7.4): 10 mM NADPH, 5 mM UDPGA, 1 mM PAPS, and 25 mM GSH.
(§2) The incubation mixture (final volume 200 µL) contained: 125 µL of deionized water, 40 µL of Tris mix buffer, 10 µL of 20 mg protein/mL S9 fraction (final concentration 1 mg protein/mL), and 5 µL of the test compound working solution (final concentration 3 µM). The final concentrations of DMSO and acetonitrile were 0.03% and 1%, respectively. The mixture was pre-incubated at 37 °C for 5 min in a shaking water bath. The reaction was initiated by adding 20 µL of the combined cofactor solution (final concentrations: 1 mM NADPH, 0.5 mM UDPGA, 0.1 mM PAPS, 2.5 mM GSH). Control incubations were performed without the cofactor mixture (replaced with buffer) and at 0 min (quenched immediately after adding cofactors). Incubations were carried out at 37 °C for 0, 15, 30, and 60 min (for stability) or 60 min (for metabolite ID). Reactions were terminated by adding 200 µL of ice-cold acetonitrile containing IS (diclofenac).
(§3) Terminated samples were sonicated (5 min), vortexed (1500 rpm, 5 min), and centrifuged (3000 rpm, 20 min, 4 °C). An aliquot (150 µL) of the supernatant was transferred to a 96-well plate for LC-MS/MS analysis as described in Section 2.6.2.
(§4) Noncompartmental analysis (NCA) was performed using PKSolver to determine pharmacokinetic parameters from the plasma concentration-time data. Parameters included: maximum plasma concentration (Cmax), time to reach Cmax (tmax), terminal elimination half-life (t1/2), area under the plasma concentration-time curve from time zero to the last measurable concentration (AUClast), area under the plasma concentration-time curve extrapolated to infinity (AUCinf), total body clearance (CL), and volume of distribution at steady state (Vss). Oral bioavailability (F) was calculated as: F(%) = (AUCinf,PO/AUCinf,IV)× (DoseIV/DosePO)×100. Due to the anomalous profile of KB-1517, AUClast was used for its F calculation, and some parameters (t½, CL, Vss for IV; AUCinf for PO) could not be reliably determined (ND). The metabolic rate constant (k) was determined by fitting the in vitro metabolic stability data to a one-phase decay equation via nonlinear regression using GraphPad Prism (Version 10, GraphPad Software, Boston, MA, USA). The in vitro t1/2 was calculated from the equation t1/2 = ln(2)/k. Subsequently, the unbound intrinsic clearance (CLint,u) was calculated as follows: CLint,u = k/(fu,S9 × [S9]), where fu,S9 is the fraction unbound in the S9 incubation and [S9] is the S9 protein concentration.
(§5) The metabolic stability of KB-1517 and KB-1518 was evaluated by incubating the compounds (3 µM) with HLS9 and MLS9 fractions (1 mg/mL) in the presence of a comprehensive set of phase I and phase II cofactors (NADPH, UDPGA, PAPS, and GSH) for up to 60 min.

[2] = In vitro metabolic stability in pooled human liver S9 fraction; format: in vitro ADME; conditions: for remaining at 1 h, 3 µM / half-life at 3 µM: pH 7.4, HLS9 1 mg/mL, 3 µM compound; for remaining at 1 h, 3 µM: cofactors NADPH, UDPGA, PAPS, GSH, 37 °C, read-out: % remaining after 60 min; for half-life at 3 µM: with cofactors, one-phase decay fit, read-out: in vitro t½ (estimated); for microsomal CLint at 3 µM: pH 7.4, HLS9, CLint,u = k/(fu,S9 × [S9]), read-out: CLint,u (unbound intrinsic clearance)
Protocol: as §1, §2, §3, §4, §5

remaining at 1 h, 3 µM [1] [%]	half-life at 3 µM [1] [h]	microsomal CLint at 3 µM [1] [µL/min/mg]	remaining at 1 h, 3 µM [2] [%]	half-life at 3 µM [2] [h]	microsomal CLint at 3 µM [2] [µL/min/mg]	Structure (SMILES)
67.2 ± 1	3.06	25	81.9 ± 0.7	3.09	19.6	CN(C)CCn1c(=O)c2nc(-c3ccc(C(F)(F)F)cc3)oc2c2ccccc21 [KB-1517, 5-(2-(dimethylamino)ethyl)-2-(4-(trifluoromethyl)phenyl)oxazolo[4,5-c]quinolin-4(5H)-one]
57.2 ± 1.3	1.24	216	74.2 ± 2.5	1.88	101	CN(C)CCOc1nc2ccccc2c2oc(-c3ccc(C(F)(F)F)cc3)nc12 [KB-1518, N,N-dimethyl-2-((2-(4-(trifluoromethyl)phenyl)oxazolo[4,5-c]quinolin-4-yl)oxy)ethan-1-amine]
